Measured values: US5688936A, “Vesicle membrane transport proteins” (priority 1993, dated 1997)
Where two headings read alike, the source gives them in different places.

What was measured:
PC12 cells [1] = test: cells; settings: Rattus norvegicus, PC-12, 1 h, read-out: [^3 H]-Dopamine Uptake (PC12)
Experimental: The effects of various pharmacologic agents were tested to determine whether the properties of the protein encoded by the mpp^res cDNA corresponded with those expected for the chromaffin granule amine transport protein. […] The cells were pre-incubated in Krebs-Ringer buffer containing 1 μM pargyline and the dose of the drug indicated for 15 minutes. […] Values were determined from three separate wells and the mean was expressed as percent of control uptake±standard deviation.

[2] = target: T1, chromaffin granule amine transport protein (Rattus norvegicus, UniProt Q01818); test: cell-based; type: cell-based; settings: for Dopamine Fluorescence (mpp^res CHO): untreated control ++++, 12 hour dopamine loading; for inhibition of vesicular amine uptake/transport (fluorescence assay, in words): concentrations of Table 1
T1 sequence (Q01818 1-521): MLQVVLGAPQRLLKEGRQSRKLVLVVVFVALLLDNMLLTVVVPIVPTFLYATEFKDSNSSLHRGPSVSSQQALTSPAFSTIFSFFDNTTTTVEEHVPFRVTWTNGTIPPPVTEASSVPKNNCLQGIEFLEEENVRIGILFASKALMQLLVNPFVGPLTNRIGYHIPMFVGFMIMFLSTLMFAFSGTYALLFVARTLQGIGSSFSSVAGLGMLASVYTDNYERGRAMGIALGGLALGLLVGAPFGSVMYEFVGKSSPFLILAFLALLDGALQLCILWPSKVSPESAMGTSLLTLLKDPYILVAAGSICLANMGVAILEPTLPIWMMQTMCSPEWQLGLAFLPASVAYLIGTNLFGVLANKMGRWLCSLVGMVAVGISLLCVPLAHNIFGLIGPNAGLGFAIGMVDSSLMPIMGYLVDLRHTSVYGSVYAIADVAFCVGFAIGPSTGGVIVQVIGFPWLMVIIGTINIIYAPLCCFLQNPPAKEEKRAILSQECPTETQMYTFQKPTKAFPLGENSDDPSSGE
Experimental: Uptake and cellular compartmentalization of loaded dopamine were performed by growing cells on poly-lysine-coated glass coverslips. […] The cells were then washed three times in 0.1M sodium phosphate, pH 7.4, and incubated at 4° C. in 2% glyoxylic acid/0.5 mg% MgCl2, pH 4.9-5.0 for three minutes as described by de la Torre, J. Neurosci. Meth. 3:1-5 (1980). Briefly, excess solution is wiped off the bottom and edges of the slide using absorbent paper, taking care not to touch the section. The coverslips were then drained thoroughly, dried in air at 45° C. heated to 80° C. for five minutes, inverted over mineral oil on glass slides and examined under fluorescence using the appropriate filters as described by Knigge et al., Brain Res. 120:393-405 (1977). Briefly, the preparations were infiltrated with warm immersion oil and examined in a Leitz MPV2 microspectrofluorometer equipped with Schoffel excitation and emission grating monochromators, photomultipliers, and ratio computing circuitry. Cells were scanned with either monochromatic light (370 nm) or narrow band excitation (S405, BG3) light for the purpose of identifying fluorescence within cells. Ploem illumination was used in combination with a X 63 or X 100 oil immersion objective.
Dopamine-loaded fluorescence was carried out as described in Example 1. […] Glyoxylic-acid-induced fluorescence was used to determine the intracellular distribution as described above in Example 1. The procedures were the same as described in Example 1 however a pure cDNA clone encoding the vesicle membrane transport protein, selected in the presence of MPP^+, obtained as described herein, was used rather than the primary transformant. […]
The effects of various pharmacologic agents were tested to determine whether the properties of the protein encoded by the mpp^res cDNA corresponded with those expected for the chromaffin granule amine transport protein. […] The cells were pre-incubated in Krebs-Ringer buffer containing 1 μM pargyline and the dose of the drug indicated for 15 minutes. 25 nM [^3 H]-dopamine was then added in the same buffer and after incubation at 37° C. for one hour, the cells were washed in cold Krebs-Ringer buffer, lysed and counted in Ecolite (ICN) as described by Greene and Rein, Brain Res. 129:247-263 (1978). Values were determined from three separate wells and the mean was expressed as percent of control uptake±standard deviation. […] The dose required to inhibit maximal uptake by 50%, Ki, was estimated from the fluorescence data using a range of concentrations for each agent.

[3] = target: T1, chromaffin granule amine transport protein; test: Quantitative [3H]dopamine transport assay with mpp^res CHO cell homogenate; type: biochemical; settings: for rank order for affinity of substrates: quantitative assay
Experimental: The quantity of label bound is measured after filtration of the assay mixture. Preferably, the label is a radioactive label. […] This can be done by standard graphic kinetic techniques such as the Lineweaver-Burke plot.
Incubation was performed at 29° C. for the time period indicated (from 2 minutes to 30 minutes). The assay was terminated by dilution in cold assay buffer followed by filtration through 0.2 μm Supor™ 200 membranes (Gelman, Ann Arbor, Mich.) and the bound radioactivity was measured. The cells used for the quantitative assay are selected in MPP^+ or screened with antibody to ensure that they express the transporter at high levels, as it is difficult to measure activity in this assay at low levels of transporter expression.
The quantitative transport test was performed as described above on wild-type CHO cells and mpp^res CHO cells.

wild-type CHO cells = test: MTT cytotoxicity assay in wild-type CHO cells; type: cell-based, Chinese hamster; settings: wild-type CHO, 2-3 days
Experimental: (§1) Differential susceptibility to the respiratory complex I inhibitors MPP^+ and rotenone was shown by measuring toxicity by measuring general cell dehydrogenase activity with reduction of a tetrazolium dye (MTT) in a spectrophotometric plate assay as described by Hansen et al., J. Immunol. Methods 119:203-210 (1989). Briefly, a stock solution of MTT (3,(4,5-dimethylthiazol-2-yl)2,5-diphenyltetrazolium bromide) was dissolved at a concentration of 5 mg/ml in sterile phosphate buffered saline at room temperature. To each well was added 25 μl of the stock solution. After two hours of incubation at 37° C., 100 μl of extraction buffer (20% w/v of SDS in a solution of 50% each dimethylformamide and demineralized water with the pH adjusted to 4.7 with acetic acid and HCl). After an overnight incubation at 37° C., the optical densities at 570 nm were measured using a multiscanner, employing the extraction buffer as the blank. This assay was carried out in triplicate on 96-well plates (NUNC, Denmark). MPP^+ and rotenone at the concentrations indicated in FIG. 6a and 6b, respectively, was added to wild-type and MPP^+ -resistant CHO cells at approximately 50% confluence, and toxicity was assayed after 2-3 days by measuring general cell dehydrogenase activity with the reduction of the tetrazolium dye MTT (3,(4,5-dimethylthiazol-2-yl)2,5-diphenyl-tetrazolium bromide). After addition of the dye at a final concentration of 1 mg/ml, the cells were incubated for two hours at 37° C. and the formazan product was solubilized in 10% sodium dodecyl sulfate (SDS). The plates were maintained at 37° C. for an additional twenty hours and the optical density was determined in an ELISA plate reader at a test wavelength of 570 nm, a reference wavelength of 630 nm and a calibration setting of 1.99. All determinations were performed in triplicate and expressed as the mean, with the error bars representing standard deviation (FIG. 6a and 6b).

Untransfected CHO cells = test: Survival/selection of untransfected CHO cells in MPP+; type: cell-based, Chinese hamster; settings: 500 μM
Experimental: To determine whether the transfer of DNA sequences from PC12 cells into CHO cells could be used to generate stable CHO transformants resistant to MPP^+, it was first necessary to determine the spontaneous rate of resistance under different culture conditions. […] Selection of one million CHO cells at intermediate density (25-50% confluence) in 500 μM MPP^+ gave rise to 5-10 small colonies after one month. However, these cells contained particulate inclusions characteristic of MPP^+ toxicity, and grew very slowly even when maintained at low density. At moderate density, the cells degenerated further and detached from the plate.

[4] = tested on: MPP^+ -resistant CHO cells; test: MTT cytotoxicity assay in MPP+-resistant transfected CHO cells; type: cell-based, Chinese hamster
Experimental: as §1
To determine whether an alteration in the process of respiration was responsible for the resistance to MPP^+, the effects of other known respiratory inhibitors were examined. […] Thus, if the resistance were due to a change in the site of action, the transfected cells should also show resistance to rotenone. […] However, rotenone is considered to have its selected effect on respiration at relatively low doses, and an additional, less specific effect at higher doses.
Therefore, the toxicity of MPP^+ to transfected cells in the presence of 1 μM reserpine was examined.

chromaffin cells = settings: [3H]-MPP+ accumulated; cited from earlier work
CHO cells = test: Inhibition of protein synthesis in CHO cells by MPP+
transfected CHO cells = test: Survival/selection/growth of transfected CHO cells in MPP+; type: cell-based, Chinese hamster
Experimental: Using the above methods, the PC12 cDNA library constructed in the plasmid expression vector CDM8 was transfected into CHO cells. Using the selectable marker RSV- neo (Walker, Weizmann Institute, Israel), […] independent stable transformants were obtained after selection in the neomycin analogue G418 at 400 μg/ml effective dose. These cells were then selected at 40% confluence in 1 mM MPP^+. […] However, at four weeks, a colony of cells without refractile inclusions appeared and rapidly covered the plate. The apparently normal growth of these cells in the presence of 1 mM MPP^+ stands in marked contrast to all of the resistant clones obtained without transfection, which grew very slowly if at all. […] However, at 1 mM MPP^+, the resistant cells did show some toxicity, particularly when the assay was performed at higher cell density.
To identify the cDNA sequences responsible for conferring resistance to MPP^+, integrated plasmids were rescued from the primary CHO transformant obtained as described above in Example 1. […] The primary MPP^+ -resistant CHO transformant was amplified in culture and following cell lysis in 5M guanidinium isothiocyanate, the high molecular weight DNA prepared by repeated precipitation in isopropanol. After digestion with Not I, which cleaves the CDM8 vector once downstream of the cDNA insertion site as well as at rare eight-nucleotide recognition sites elsewhere in the genome, the DNA was religated and transformed into E. coli by electroporation as described by Stern-Bach et al., J. Biol. Chem. 265:3961-3966 (1990). Four pools of the derived plasmids containing approximately 50 colonies each were transfected into CHO cells and after two days were selected in 1 mM MPP^+. Four weeks later, one pool gave rise to several MPP^+ -resistant colonies, two pools gave rise to 1-2 colonies and the fourth pool and CDM8 vector gave rise to no healthy, resistant colonies. Restriction enzyme analysis of the plasmids in the pool conferring the highest frequency of resistance to MPP^+ indicated three independent clones of 1.0, 1.3 and 2.5 kb. […]

PC12 cells [5] = settings: cited from earlier work

CCN(CC)CCCC(C)Nc1ccnc2cc(Cl)ccc12 (stereo not drawn) [chloroquine]
activity at 500 µM (PC12 cells [1]): 17 ± 1% | Dopamine Fluorescence (mpp^res CHO) ([2]; agent 500 μM): 0 | inhibition of vesicular amine uptake/transport (fluorescence assay, in words) [2]: inhibited vesicular amine uptake

NCCc1ccc(O)c(O)c1 [dopamine]
rank order for affinity of substrates [3]: serotonin>epinephrine>dopamine>norepinephrine

C[n+]1ccc(-c2ccccc2)cc1 [MPP^+, 1-methyl-4-phenylpyridinium]
MPP+ toxicity (MTT assay) (wild-type CHO cells): steep dose-response curve | number of resistant colonies from one million CHO cells (Untransfected CHO cells; 25-50% confluence, after one month): 5-10 small colonies | cell survival in MPP+ (Untransfected CHO cells; high density (more than 75% confluence)): all of the cells died within 24 hours | cell survival in MPP+ (Untransfected CHO cells; low density (less than 25% confluence)): the cells stopped growing, gradually acquiring refractile cytoplasmic inclusions, swelling and eventually detaching from the plate after several weeks | acquired resistance of untransfected CHO cells (Untransfected CHO cells; selection for over two months): little resistance | MPP+ toxicity (MTT assay) ([4]; resistant cells, 1 mM, particularly at higher cell density): some toxicity | MPP+ toxicity (MTT assay) ([4]; resistant clone, 2-3 days): relative lack of toxicity | toxicity to chromaffin cells (chromaffin cells): relatively little toxicity | sensitivity of CHO cells to MPP+ relative to PC12 cells (CHO cells): greater sensitivity to MPP^+ than PC12 cells | inhibition of protein synthesis (CHO cells; over 100 μM, 2-3 days, high density CHO cells): virtually complete inhibition of protein synthesis | toxicity in library-transfected CHO cells (transfected CHO cells; 1 mM, 40% confluence): Virtually all of the cells developed toxicity within one week | growth of the resistant clone in MPP+ (transfected CHO cells; vs untreated wild-type cells, particularly at higher densities): slightly more slowly | PC12 cell death (PC12 cells [5]; 100 μM): death by two weeks | PC12 cell death (PC12 cells [5]; 1 mM): cell death by four days

NC[C@H](O)c1ccc(O)c(O)c1 [norepinephrine]
rank order for affinity of substrates [3]: serotonin>epinephrine>dopamine>norepinephrine

COc1ccc(CCN(C)CCCC(C#N)(c2ccc(OC)c(OC)c2)C(C)C)cc1OC (stereo not drawn) [verapamil]
activity at 100 µM (PC12 cells [1]): 21 ± 1% | Ki [2]: 50 µM | Dopamine Fluorescence (mpp^res CHO) ([2]; agent 100 μM): 0 | inhibition of vesicular amine uptake/transport (fluorescence assay, in words) [2]: inhibited transport, but at high concentrations

CNCCCN1c2ccccc2CCc2ccccc21 [desipramine]
Ki ([2]; dose required to inhibit maximal uptake by 50%, estimated from fluorescence data, read-out: Ki (est)): 500 µM

CNC[C@H](O)c1ccc(O)c(O)c1 [epinephrine]
rank order for affinity of substrates [3]: serotonin>epinephrine>dopamine>norepinephrine

NCCc1c[nH]c2ccc(O)cc12 [serotonin]
rank order for affinity of substrates [3]: serotonin>epinephrine>dopamine>norepinephrine

N#CC(C#N)=NNc1cccc(Cl)c1 [carbonyl cyanide m-chlorophenylhydrazone]
dopamine incorporation by mpp^res cells ([3]; 5 μM): blocked
